# Results from patent US20100222396A1 (Novartis AG, priority 2009, published 2010).
# Legend:
# [1] = target: T1, human orexin 1 receptor (hOx1R) (Homo sapiens, UniProt O43613); experiment: Calcium accumulation in cells (FLIPR), antagonism of orexin A, hOx1R; format: cell-based; conditions: for Kd: cells expressing human orexin 1 receptor, IC50 vs orexin A converted by Cheng and Prusoff correction
# T1 construct: expressed in transfected cells
# T1 sequence (O43613 1-425): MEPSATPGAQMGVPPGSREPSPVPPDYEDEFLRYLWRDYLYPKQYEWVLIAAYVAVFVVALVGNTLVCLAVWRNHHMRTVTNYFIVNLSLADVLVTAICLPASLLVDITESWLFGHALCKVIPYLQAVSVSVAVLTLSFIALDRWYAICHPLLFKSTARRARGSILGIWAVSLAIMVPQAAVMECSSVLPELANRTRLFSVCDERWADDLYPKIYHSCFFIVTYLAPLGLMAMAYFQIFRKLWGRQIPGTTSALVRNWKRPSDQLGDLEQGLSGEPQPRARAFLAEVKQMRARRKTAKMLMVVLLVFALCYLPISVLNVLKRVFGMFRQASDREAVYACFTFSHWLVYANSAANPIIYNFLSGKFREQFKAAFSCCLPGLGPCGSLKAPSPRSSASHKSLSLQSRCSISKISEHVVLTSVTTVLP
# Method in brief: (§1)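 Serum-starved receptor-expressing cells were loaded with Fluo-4-AM (2 μM) plus probenecid (0.1 mM) in HEPES buffer, pH 7.4, with 1% BSA, and Ca2+ fluorescence was read on FLIPR. Compounds (10^−9–10^−5 M) were added first, and orexin A was added one hour later to measure antagonism.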
# [2] = target: T2, human orexin 2 receptor (hOx2R) (Homo sapiens, UniProt O43614); experiment: Calcium accumulation in cells (FLIPR), antagonism of orexin A, hOx2R; format: cell-based; conditions: for Kd: cells expressing human orexin 2 receptor, IC50 vs orexin A converted by Cheng and Prusoff correction
# T2 construct: expressed in transfected cells
# T2 sequence (O43614 1-444): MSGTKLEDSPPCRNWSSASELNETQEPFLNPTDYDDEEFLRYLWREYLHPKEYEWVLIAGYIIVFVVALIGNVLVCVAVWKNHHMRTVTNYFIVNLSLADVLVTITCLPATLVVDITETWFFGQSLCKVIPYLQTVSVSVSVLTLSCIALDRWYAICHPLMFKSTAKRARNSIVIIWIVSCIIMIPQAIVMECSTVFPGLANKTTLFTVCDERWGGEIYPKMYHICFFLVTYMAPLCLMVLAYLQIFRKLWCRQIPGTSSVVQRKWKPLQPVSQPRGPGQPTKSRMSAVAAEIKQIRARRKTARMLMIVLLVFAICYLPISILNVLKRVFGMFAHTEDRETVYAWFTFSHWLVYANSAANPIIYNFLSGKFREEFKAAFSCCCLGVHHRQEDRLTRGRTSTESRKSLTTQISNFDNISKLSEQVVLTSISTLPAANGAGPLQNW
# Method in brief: as §1
# [3] = target: T2, human orexin 2 receptor (hOx2R); experiment: Radioligand binding assay ([125I]orexin A competition), hOx2R; conditions: CHO or HEK cell membranes, 1 h room temperature
# Method in brief: (§2)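 Membranes from CHO or HEK cells expressing the human receptor, incubated 1 h at room temperature with […] [125I]orexin A and compound in HEPES pH 7.5 buffer with BSA, MgCl2, CaCl2 and tween.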
# [4] = target: T1, human orexin 1 receptor (hOx1R); experiment: Radioligand binding assay ([125I]orexin A competition), hOx1R; conditions: CHO or HEK cell membranes, 1 h room temperature
# Method in brief: as §2
# [5] = measured at a concentration of 10 μM of compound (cells marked ^a)
smiles,measurement,setting,value
"COc1cccc(C(=O)N(C)[C@H](CCNC(=O)c2ccccn2)Cc2ccccc2)c1 [Example 52, Pyridine-2-carboxylic acid {(S)-3-[(3-methoxy-benzoyl)-methyl-amino]-4-phenyl-butyl}-amide]",Kd,[1],466 nM
same,Kd,[2],916 nM
same,Kd,[3],963 nM
same,Kd,[4],2420 nM
"COc1cccc(C(=O)N(C)[C@H](CCNC(=O)c2nc3ccccc3n2C)Cc2ccccc2)c1 [Example 79, 1-Methyl-1H-benzoimidazole-2-carboxylic acid {(S)-3-[(3-methoxy-benzoyl)-methyl-amino]-4-phenyl-butyl}-amide]",Kd,[1],225 nM
same,Kd,[2],12 nM
same,Kd,[3],30 nM
same,Kd,[4],73 nM
"CN(C(=O)c1ccc2cc[nH]c2c1)[C@H](CCNC(=O)c1ccccn1)Cc1ccccc1 [Example 64, 1H-Indole-6-carboxylic acid {(S)-1-benzyl-3-[(pyridine-2-carbonyl)-amino]-propyl}-methyl-amide]",Kd,[1],1010 nM
same,Kd,[2],1070 nM
same,Kd,[3],6860 nM
same,Kd,[4],540 nM
"CN(C(=O)c1ccc2ccccc2c1)[C@@H](CCNC(=O)c1ccccn1)Cc1ccccc1 [Example 43, Pyridine-2-carboxylic acid {(R)-3-[methyl-(naphthalene-2-carbonyl)-amino]-4-phenyl-butyl}-amide]",Kd,[1],941 nM
same,Kd,[2],203 nM
same,Kd,[3],607 nM
same,Kd,[4],2250 nM
"CN(C(=O)c1cccc(Br)c1)[C@H](CCNC(=O)c1nc2ccccc2n1C)Cc1ccccc1 [Example 102, 1-Methyl-1H-benzoimidazole-2-carboxylic acid {(S)-3-[(3-bromo-benzoyl)-methyl-amino]-4-phenyl-butyl}-amide]",Kd,[1],18 nM
same,Kd,[2],1 nM
same,Kd,[3],2 nM
same,Kd,[4],28 nM
"CN(C(=O)c1ccc2c(c1)OCO2)[C@H](CCNC(=O)c1ccc2c(c1)OCO2)Cc1ccccc1 [Example 62, Benzo[1,3]dioxole-5-carboxylic acid {(S)-3-[(benzo[1,3]dioxole-5-carbonyl)-amino]-1-benzyl-propyl}-methyl-amide]",Kd,[1],872 nM
same,Kd,[2],22 nM
same,Kd,[3],47 nM
same,Kd,[4],222 nM
"CN(C(=O)c1ccc2ccccc2c1)[C@H](CCNC(=O)c1nc2ccccc2n1C)Cc1ccc(Cl)cc1 [Example 50, 1-Methyl-1H-benzoimidazole-2-carboxylic acid {(S)-4-(4-chloro-phenyl)-3-[methyl-(naphthalene-2-carbonyl)-amino]-butyl}-amide]",Kd,[1],32 nM
same,Kd,[2],59 nM
same,Kd,[3],1110 nM
same,Kd,[4],783 nM
"Cc1cc(C)cc(C(=O)N(C)[C@H](CCNC(=O)c2cccn2C)Cc2ccccc2)c1 [Example 125, 1-Methyl-1H-pyrrole-2-carboxylic acid {(S)-3-[(3,5-dimethyl-benzoyl)-methyl-amino]-4-phenyl-butyl}-amide]",Kd,[1],230 nM
same,Kd,[2],2 nM
same,Kd,[3],7 nM
same,Kd,[4],176 nM
"CN(C(=O)c1ccc2c(c1)OCO2)[C@H](CCNC(=O)c1cc2ccccc2n1C)Cc1ccccc1 [Example 75, 1-Methyl-1H-indole-2-carboxylic acid {(S)-3-[(benzo[1,3]dioxole-5-carbonyl)-methyl-amino]-4-phenyl-butyl}-amide]",Kd,[1],267 nM
same,Kd,[2],31 nM
same,Kd,[3],473 nM
same,Kd,[4],705 nM
"C[C@H](CNC(=O)c1ccccn1)[C@H](Cc1ccccc1)N(C)C(=O)c1ccccc1 [Example 112, Pyridine-2-carboxylic acid [(2R,3S)-3-(benzoyl-methyl-amino)-2-methyl-4-phenyl-butyl]-amide]",Kd,[1],415 nM
same,Kd,[2],498 nM
same,Kd,[3],1160 nM
same,Kd,[4],477 nM
"CN(C(=O)c1cccc2ccccc12)[C@H](CCNC(=O)c1ccccn1)Cc1ccc(F)cc1 [Example 28, Pyridine-2-carboxylic acid {(8)-4-(4-fluoro-phenyl)-3-[methyl-(naphthalene-1-carbonyl)-amino]-butyl}-amide]",Kd,[1],28 nM
same,Kd,[2],4 nM
same,Kd,[3],371 nM
same,Kd,[4],579 nM
"CN(C(=O)c1cccc2c1OCO2)[C@H](CCNC(=O)c1ccccn1)Cc1ccc(Cl)cc1 [Example 65, Pyridine-2-carboxylic acid [(S)-3-[(benzo[1,3]dioxole-4-carbonyl)-methyl-amino]-4-(4-chloro-phenyl)-butyl]-amide]",inhibition at 10 µM,[1]; [5],3%
same,inhibition at 10 µM,[2]; [5],41%
same,Kd,[3],6980 nM
same,Kd,[4],> 10000 nM
